Measured values as given in patent publication EP4745118A1, “HYDROXAMIC ACID COMPOUND OR PHARMACEUTICALLY ACCEPTABLE SALT THEREOF, AND USE THEREOF AND PREPARATION METHOD THEREFOR” (priority 2023, dated 2025).
Converted amounts (≈) assume the structure as drawn. Read-outs that look alike come from different tables or passages of the source.

Columns and labels:
Pseudomonas aeruginosa = assay: In vitro antibacterial activity, agar dilution method (MIC); type: cell-based
Procedure, shortened: (§1)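 Bacteria were grown in broth, standardised to 0.5 McFarland and diluted tenfold. Spots of about 10^4 CFU were applied to plates containing serial drug concentrations, incubated 18 hours at 35°C, and the lowest concentration preventing growth was recorded as MIC.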

Proteus vulgaris = assay: as above; type: cell-based
Procedure, shortened: as §1

Serratia marcescens = assay: as above; type: cell-based
Procedure, shortened: as §1

Citrobacter freundii = assay: as above; type: cell-based
Procedure, shortened: as §1

Pantoea agglomerans = assay: as above; type: cell-based
Procedure, shortened: as §1

Klebsiella pneumoniae = assay: as above; type: cell-based; conditions: Klebsiella pneumoniae
Procedure, shortened: as §1

Proteus mirabilis = assay: as above; type: cell-based
Procedure, shortened: as §1

Escherichia coli = assay: as above; type: cell-based; conditions: Escherichia coli
Procedure, shortened: as §1

Enterobacter aerogenes = assay: as above; type: cell-based; conditions: Klebsiella aerogenes
Procedure, shortened: as §1

[1] = system: Escherichia coli ATCC BAA2469 (CRE, NDM-1-producing); assay: In vivo antibacterial activity, intraperitoneal infection in mice (survival over 7 days); conditions: for effective dose of in vivo antibacterial activity: mice with intraperitoneal infection by Escherichia coli ATCC BAA2469, intravenous; for Animal survival rate / Number of surviving animals: mice, one intravenous administration 1 hour post-infection, 7 days; for Number of surviving animals: 5 animals per group
Shigella flexneri = assay: In vitro antibacterial activity, agar dilution method (MIC); type: cell-based; conditions: ATCC12022, Shigella flexneri ATCC 12022, 35°C, 18 hours, read-out: MIC
Procedure, shortened: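 Agar dilution per CLSI in MH agar, final drug 0.03–128 µg/mL in twofold steps. About 10^4 CFU spotted per site, 35°C for 18 hours; MIC taken as lowest concentration with no growth.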

ICR strain mice = assay: Acute toxicity in mice, single tail vein injection; type: in vivo; conditions: one week
Procedure: Healthy ICR strain mice weighing 20-21 g were taken for the experiment, randomly divided into groups of 3 mice per group, regardless of gender. Each compound was administered via a single tail vein injection at a volume of 20 mL/kg. Animal responses were observed immediately postadministration and monitored for one week. The number of animal deaths was recorded and mortality rates calculated.

Enterobacter cloacae = assay: In vitro antibacterial activity, agar dilution method (MIC); type: cell-based
Procedure, shortened: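 CLSI agar dilution; inoculum ~10^4 CFU per spot from 0.5 McFarland suspension diluted 10-fold. Plates incubated 35°C for 18 h. MIC taken as lowest drug concentration giving no growth.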

[2] = Pseudomonas aeruginosa PAO1, agar dilution, 35°C, 18 hours, read-out: MIC
[3] = ATCC29905, Proteus vulgaris ATCC 29905, agar dilution, 35°C, 18 hours, read-out: MIC
[4] = ATCC21074, Serratia marcescens ATCC 21074, agar dilution, 35°C, 18 hours, read-out: MIC
[5] = ATCC43864, Citrobacter freundii ATCC 43864, agar dilution, 35°C, 18 hours, read-out: MIC
[6] = ATCC27993, Pantoea agglomerans ATCC 27993, agar dilution, 35°C, 18 hours, read-out: MIC
[7] = 18 h, Klebsiella pneumoniae 09-20 (mcr-1), agar dilution, 35°C, 18 hours, read-out: MIC
[8] = 18 h, Klebsiella pneumoniae 17-R27 (CRE), agar dilution, 35°C, 18 hours, read-out: MIC
[9] = 18 h, Klebsiella pneumoniae 18-8 (ESBLs-producing), agar dilution, 35°C, 18 hours, read-out: MIC
[10] = ATCC700603, 18 h, Klebsiella pneumoniae ATCC 700603 (ESBLs-producing), agar dilution, 35°C, 18 hours, read-out: MIC
[11] = ATCCBAA2146, 18 h, Klebsiella pneumoniae ATCC BAA-2146 (CRE, NDM-1-producing), agar dilution, 35°C, 18 hours, read-out: MIC
[12] = ATCC49565, Proteus mirabilis ATCC 49565, agar dilution, 35°C, 18 hours, read-out: MIC
[13] = 18 h, Escherichia coli 13-43 (mcr-1), agar dilution, 35°C, 18 hours, read-out: MIC
[14] = 18 h, Escherichia coli 17-R28 (CRE, NDM-1-producing), agar dilution, 35°C, 18 hours, read-out: MIC
[15] = ATCC2469, 18 h, Escherichia coli ATCC 2469 (CRE, NDM-1-producing), agar dilution, 35°C, 18 hours, read-out: MIC
[16] = ATCC35218, 18 h, Escherichia coli ATCC 35218 (ESBLs-producing), agar dilution, 35°C, 18 hours, read-out: MIC
[17] = ATCC13048, Enterobacter aerogenes ATCC 13048, agar dilution, 35°C, 18 hours, read-out: MIC
[18] = Enterobacter cloacae CDC1000654 (NDM-1-producing), agar dilution, 35°C, 18 hours, read-out: MIC

COC[C@H]1C[C@@H]1C#CC#Cc1ccc(C(=O)N[C@H](C(=O)NO)C(C)(C)N)cc1 [Ib, N-(S)-3-amino-1-hydroxyamino-3-methyl-1-oxobutan-2-yl-4-[[(1S,2S)-2-(methoxymethylene)cyclopropyl]but-1,3-diynyl]benzamide]
MIC (Pseudomonas aeruginosa; Pseudomonas aeruginosa, PAO1, 18 h): 1 µg/mL (≈ 2.61 µM)
MIC (Proteus vulgaris; Proteus vulgaris, ATCC29905, 18 h): 0.12 µg/mL (≈ 0.313 µM)
MIC (Serratia marcescens; Serratia marcescens, ATCC21074, 18 h): 0.25 µg/mL (≈ 0.652 µM)
MIC (Citrobacter freundii; Citrobacter freundii, ATCC43864, 18 h): 0.25 µg/mL (≈ 0.652 µM)
MIC (Pantoea agglomerans; Pantoea agglomerans, ATCC27993, 18 h): 1 µg/mL (≈ 2.61 µM)
MIC (Klebsiella pneumoniae; 18 h): 0.5 µg/mL (≈ 1.3 µM)
MIC (Klebsiella pneumoniae; 18 h, Klebsiella pneumoniae 09-20 (mcr-1), agar dilution, 35°C): 0.5 µg/mL (≈ 1.3 µM)
MIC (Klebsiella pneumoniae; 18 h, Klebsiella pneumoniae 17-R27 (CRE), agar dilution, 35°C): 0.25 µg/mL (≈ 0.652 µM)
MIC (Klebsiella pneumoniae; ATCC700603, 18 h): 1 µg/mL (≈ 2.61 µM)
MIC (Klebsiella pneumoniae; ATCCBAA2146, 18 h, Klebsiella pneumoniae ATCC BAA-2146 (CRE, NDM-1-producing), agar dilution, 35°C, 18 hours): 2 µg/mL (≈ 5.22 µM)
MIC (Proteus mirabilis; Proteus mirabilis, ATCC49565, 18 h): 1 µg/mL (≈ 2.61 µM)
MIC (Escherichia coli; 18 h, Escherichia coli 13-43 (mcr-1), agar dilution, 35°C): 0.5 µg/mL (≈ 1.3 µM)
MIC (Escherichia coli; 18 h, Escherichia coli 17-R28 (CRE, NDM-1-producing), agar dilution, 35°C): 0.25 µg/mL (≈ 0.652 µM)
MIC (Escherichia coli; ATCC2469, 18 h, Escherichia coli ATCC 2469 (CRE, NDM-1-producing), agar dilution, 35°C, 18 hours): 0.25 µg/mL (≈ 0.652 µM)
MIC (Escherichia coli; ATCC35218, 18 h): 0.25 µg/mL (≈ 0.652 µM)
MIC (Enterobacter aerogenes; ATCC13048, 18 h): 0.5 µg/mL (≈ 1.3 µM)
effective dose of in vivo antibacterial activity [1]: below 1.5 mg/kg
Animal survival rate ([1]; dose 1.4 mg/kg): 60%
MIC (Shigella flexneri): 0.12 µg/mL (≈ 0.313 µM)
Mortality rate (ICR strain mice; dose 150 mg/kg): 0%
Number of deaths (ICR strain mice; dose 150 mg/kg): 0 individuals
Mortality rate (ICR strain mice; dose 200 mg/kg): 100%
Number of deaths (ICR strain mice; dose 200 mg/kg): 3 individuals
MIC (Enterobacter cloacae; Enterobacter cloacae, 18 h): 2 µg/mL (≈ 5.22 µM)

COC[C@H]1C[C@H]1C#CC#Cc1ccc(C(=O)N[C@H](C(=O)NO)C(C)(C)N)cc1 [Ic, N-(S)-3-amino-1-hydroxyamino-3-methyl-1-oxobutan-2-yl-4-[[(1R,2S)-2-(methoxymethylene)cyclopropyl]but-1,3-diynyl]benzamide]
MIC (Pseudomonas aeruginosa; [2]): 0.5 µg/mL (≈ 1.3 µM)
MIC (Proteus vulgaris; [3]): 0.12 µg/mL (≈ 0.313 µM)
MIC (Serratia marcescens; [4]): 0.25 µg/mL (≈ 0.652 µM)
MIC (Citrobacter freundii; [5]): 0.25 µg/mL (≈ 0.652 µM)
MIC (Pantoea agglomerans; [6]): 0.5 µg/mL (≈ 1.3 µM)
MIC (Klebsiella pneumoniae; [7]): 0.25 µg/mL (≈ 0.652 µM)
MIC (Klebsiella pneumoniae; [8]): 0.5 µg/mL (≈ 1.3 µM)
MIC (Klebsiella pneumoniae; [9]): 0.06 µg/mL (≈ 0.156 µM)
MIC (Klebsiella pneumoniae; [10]): 1 µg/mL (≈ 2.61 µM)
MIC (Klebsiella pneumoniae; [11]): 2 µg/mL (≈ 5.22 µM)
MIC (Proteus mirabilis; [12]): 0.5 µg/mL (≈ 1.3 µM)
MIC (Escherichia coli; [13]): 0.25 µg/mL (≈ 0.652 µM)
MIC (Escherichia coli; [14]): 0.12 µg/mL (≈ 0.313 µM)
MIC (Escherichia coli; [15]): 0.12 µg/mL (≈ 0.313 µM)
MIC (Escherichia coli; [16]): 0.12 µg/mL (≈ 0.313 µM)
MIC (Enterobacter aerogenes; [17]): 0.5 µg/mL (≈ 1.3 µM)
effective dose of in vivo antibacterial activity [1]: below 1.5 mg/kg
Animal survival rate ([1]; dose 0.35 mg/kg): 0%
Number of surviving animals ([1]; dose 0.35 mg/kg): 0 individuals
Animal survival rate ([1]; dose 1.4 mg/kg): 80%
MIC (Shigella flexneri): 0.06 µg/mL (≈ 0.156 µM)
Mortality rate (ICR strain mice; dose 100 mg/kg): 0%
Number of deaths (ICR strain mice; dose 100 mg/kg): 0 individuals
Mortality rate (ICR strain mice; dose 150 mg/kg): 33%
Number of deaths (ICR strain mice; dose 150 mg/kg): 1 individuals
Mortality rate (ICR strain mice; dose 200 mg/kg): 100%
Number of deaths (ICR strain mice; dose 200 mg/kg): 3 individuals
MIC (Enterobacter cloacae; [18]): 1 µg/mL (≈ 2.61 µM)

COC[C@@H]1C[C@@H]1C#CC#Cc1ccc(C(=O)N[C@H](C(=O)NO)C(C)(C)N)cc1 [Id, N-(S)-3-amino-1-hydroxyamino-3-methyl-1-oxobutan-2-yl-4-[[(1S,2R)-2-(methoxymethylene)cyclopropyl]but-1,3-diynyl]benzamide]
MIC (Pseudomonas aeruginosa; [2]): 1 µg/mL (≈ 2.61 µM)
MIC (Proteus vulgaris; [3]): 0.12 µg/mL (≈ 0.313 µM)
MIC (Serratia marcescens; [4]): 0.25 µg/mL (≈ 0.652 µM)
MIC (Citrobacter freundii; [5]): 0.25 µg/mL (≈ 0.652 µM)
MIC (Pantoea agglomerans; [6]): 1 µg/mL (≈ 2.61 µM)
MIC (Klebsiella pneumoniae; [7]): 0.5 µg/mL (≈ 1.3 µM)
MIC (Klebsiella pneumoniae; [8]): 0.5 µg/mL (≈ 1.3 µM)
MIC (Klebsiella pneumoniae; [9]): 0.5 µg/mL (≈ 1.3 µM)
MIC (Klebsiella pneumoniae; [10]): 2 µg/mL (≈ 5.22 µM)
MIC (Klebsiella pneumoniae; [11]): 2 µg/mL (≈ 5.22 µM)
MIC (Proteus mirabilis; [12]): 1 µg/mL (≈ 2.61 µM)
MIC (Escherichia coli; [13]): 0.5 µg/mL (≈ 1.3 µM)
MIC (Escherichia coli; [14]): 0.25 µg/mL (≈ 0.652 µM)
MIC (Escherichia coli; [15]): 0.25 µg/mL (≈ 0.652 µM)
MIC (Escherichia coli; [16]): 0.25 µg/mL (≈ 0.652 µM)
MIC (Enterobacter aerogenes; [17]): 0.5 µg/mL (≈ 1.3 µM)
effective dose of in vivo antibacterial activity [1]: below 1.5 mg/kg
Animal survival rate ([1]; dose 0.35 mg/kg): 0%
Number of surviving animals ([1]; dose 0.35 mg/kg): 0 individuals
Animal survival rate ([1]; dose 0.7 mg/kg): 0%
Number of surviving animals ([1]; dose 0.7 mg/kg): 0 individuals
Animal survival rate ([1]; dose 1.4 mg/kg): 60%
Number of surviving animals ([1]; dose 1.4 mg/kg): 3 individuals
MIC (Shigella flexneri): 0.06 µg/mL (≈ 0.156 µM)
Mortality rate (ICR strain mice; dose 100 mg/kg): 0%
Number of deaths (ICR strain mice; dose 100 mg/kg): 0 individuals
Mortality rate (ICR strain mice; dose 150 mg/kg): 67%
Number of deaths (ICR strain mice; dose 150 mg/kg): 2 individuals
Mortality rate (ICR strain mice; dose 200 mg/kg): 100%
Number of deaths (ICR strain mice; dose 200 mg/kg): 3 individuals
MIC (Enterobacter cloacae; [18]): 1 µg/mL (≈ 2.61 µM)
